From ChEMBL document CHEMBL5465560, “Selectivity Literature for EUbOPEN Chemogenomic Library” (2024)

Experiments:
Misshapen-like kinase 1 = Misshapen-like kinase 1 (Homo sapiens, UniProt Q8N4C8); experiment: Selectivity interaction (Kinase screening (Nanosyn)) EUB0000604a MINK1
[1] = molecular target: Calcium/calmodulin-dependent protein kinase type 1D (Homo sapiens) (UniProt Q8IU85); experiment: Selectivity interaction (ActivX KiNativ screen (kinase selectivity in THP-1 cell lysates)) EUB0000639a CAMK1D; assay type: subcellular; details: lysate, at 0.2 µM
[2] = molecular target: T1, Aurora kinase C (Homo sapiens) (UniProt Q9UQB9); details: at 10 µM
T1 sequence (whole entry): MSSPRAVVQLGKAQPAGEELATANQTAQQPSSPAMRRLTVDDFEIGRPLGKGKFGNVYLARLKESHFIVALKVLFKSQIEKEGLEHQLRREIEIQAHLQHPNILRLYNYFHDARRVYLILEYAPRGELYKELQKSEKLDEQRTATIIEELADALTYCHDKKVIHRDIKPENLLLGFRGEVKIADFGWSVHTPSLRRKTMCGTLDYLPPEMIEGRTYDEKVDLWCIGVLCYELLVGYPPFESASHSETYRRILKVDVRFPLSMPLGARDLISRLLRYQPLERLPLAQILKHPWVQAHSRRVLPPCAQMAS

[3] = molecular target: T2, Cyclin-dependent kinase-like 2 (Homo sapiens) (UniProt Q92772); experiment: Selectivity interaction (KinomeScan (DiscoverX)) EUB0000229b CDKL2; details: at 10 µM
T2 sequence (whole entry): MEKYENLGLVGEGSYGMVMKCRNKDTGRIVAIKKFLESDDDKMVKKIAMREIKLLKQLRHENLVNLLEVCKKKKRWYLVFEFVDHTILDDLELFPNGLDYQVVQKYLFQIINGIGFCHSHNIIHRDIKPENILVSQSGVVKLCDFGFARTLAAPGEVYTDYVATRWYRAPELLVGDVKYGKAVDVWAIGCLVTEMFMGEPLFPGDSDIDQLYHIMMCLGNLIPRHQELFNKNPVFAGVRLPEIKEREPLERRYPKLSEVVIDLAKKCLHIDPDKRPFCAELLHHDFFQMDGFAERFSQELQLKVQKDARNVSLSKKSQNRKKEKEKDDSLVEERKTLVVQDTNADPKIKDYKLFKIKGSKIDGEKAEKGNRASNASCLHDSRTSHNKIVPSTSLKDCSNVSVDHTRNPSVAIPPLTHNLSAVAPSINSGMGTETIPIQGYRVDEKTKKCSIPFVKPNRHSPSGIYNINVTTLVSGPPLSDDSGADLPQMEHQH

[4] = molecular target: T3, Serine/threonine-protein kinase Nek1 (Homo sapiens) (UniProt Q96PY6); experiment: Selectivity interaction (KinomeScan (DiscoverX)) EUB0000092b NEK1; details: at 10 µM
T3 sequence (whole entry): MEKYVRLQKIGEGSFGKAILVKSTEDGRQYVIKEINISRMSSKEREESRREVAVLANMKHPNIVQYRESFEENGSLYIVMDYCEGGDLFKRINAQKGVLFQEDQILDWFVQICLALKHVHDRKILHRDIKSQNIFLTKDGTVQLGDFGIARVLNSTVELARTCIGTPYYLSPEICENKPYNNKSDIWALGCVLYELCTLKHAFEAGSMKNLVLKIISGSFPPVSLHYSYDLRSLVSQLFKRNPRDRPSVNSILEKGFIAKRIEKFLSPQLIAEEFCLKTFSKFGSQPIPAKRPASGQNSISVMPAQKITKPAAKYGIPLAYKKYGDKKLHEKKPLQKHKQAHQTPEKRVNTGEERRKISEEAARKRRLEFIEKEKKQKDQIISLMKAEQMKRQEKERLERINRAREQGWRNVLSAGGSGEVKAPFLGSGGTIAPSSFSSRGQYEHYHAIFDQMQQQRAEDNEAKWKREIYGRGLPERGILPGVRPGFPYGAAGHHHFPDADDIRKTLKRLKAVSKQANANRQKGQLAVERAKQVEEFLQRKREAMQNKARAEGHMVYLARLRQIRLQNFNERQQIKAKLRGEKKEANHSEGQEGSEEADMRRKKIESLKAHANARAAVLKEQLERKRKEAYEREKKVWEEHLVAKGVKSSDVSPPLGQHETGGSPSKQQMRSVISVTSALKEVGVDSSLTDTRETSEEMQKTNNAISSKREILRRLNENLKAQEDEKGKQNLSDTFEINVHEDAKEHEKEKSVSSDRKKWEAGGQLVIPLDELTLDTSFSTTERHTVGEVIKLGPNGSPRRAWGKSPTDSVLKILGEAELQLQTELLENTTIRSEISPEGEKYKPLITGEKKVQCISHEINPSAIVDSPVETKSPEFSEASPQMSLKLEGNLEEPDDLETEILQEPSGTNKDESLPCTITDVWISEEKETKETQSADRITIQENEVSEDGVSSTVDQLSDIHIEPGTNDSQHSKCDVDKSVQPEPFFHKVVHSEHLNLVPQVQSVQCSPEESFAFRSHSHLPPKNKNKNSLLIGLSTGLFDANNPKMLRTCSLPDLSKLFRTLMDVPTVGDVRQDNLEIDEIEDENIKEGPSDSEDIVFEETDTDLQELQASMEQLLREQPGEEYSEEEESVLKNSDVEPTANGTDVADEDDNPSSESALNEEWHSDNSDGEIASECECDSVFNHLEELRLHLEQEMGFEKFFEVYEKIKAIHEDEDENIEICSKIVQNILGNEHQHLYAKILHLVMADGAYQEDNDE

[5] = molecular target: TGF-beta receptor type-2 (Homo sapiens) (UniProt P37173); experiment: Selectivity interaction (KinomeScan (DiscoverX)) EUB0000607a TGFBR2; details: at 10 µM
Sequence of TGF-beta receptor type-2 (Homo sapiens) (P37173 whole entry): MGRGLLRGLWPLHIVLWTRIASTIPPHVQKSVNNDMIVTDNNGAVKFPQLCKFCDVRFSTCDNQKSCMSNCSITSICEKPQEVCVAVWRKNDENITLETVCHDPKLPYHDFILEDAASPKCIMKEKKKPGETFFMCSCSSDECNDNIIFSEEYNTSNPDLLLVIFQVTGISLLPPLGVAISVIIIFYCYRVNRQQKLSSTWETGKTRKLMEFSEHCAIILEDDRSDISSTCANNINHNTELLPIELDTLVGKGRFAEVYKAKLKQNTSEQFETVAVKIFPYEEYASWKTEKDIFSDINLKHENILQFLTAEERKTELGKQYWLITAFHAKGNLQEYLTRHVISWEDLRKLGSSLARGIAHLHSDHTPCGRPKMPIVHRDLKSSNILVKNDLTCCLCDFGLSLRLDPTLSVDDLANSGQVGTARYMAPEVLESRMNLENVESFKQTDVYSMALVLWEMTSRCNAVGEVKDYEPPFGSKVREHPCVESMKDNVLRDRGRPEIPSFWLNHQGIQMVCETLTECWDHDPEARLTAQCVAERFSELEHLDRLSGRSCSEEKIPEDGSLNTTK

Sequence of Calcium/calmodulin-dependent protein kinase type 1D (Homo sapiens) (Q8IU85 whole entry, looked up): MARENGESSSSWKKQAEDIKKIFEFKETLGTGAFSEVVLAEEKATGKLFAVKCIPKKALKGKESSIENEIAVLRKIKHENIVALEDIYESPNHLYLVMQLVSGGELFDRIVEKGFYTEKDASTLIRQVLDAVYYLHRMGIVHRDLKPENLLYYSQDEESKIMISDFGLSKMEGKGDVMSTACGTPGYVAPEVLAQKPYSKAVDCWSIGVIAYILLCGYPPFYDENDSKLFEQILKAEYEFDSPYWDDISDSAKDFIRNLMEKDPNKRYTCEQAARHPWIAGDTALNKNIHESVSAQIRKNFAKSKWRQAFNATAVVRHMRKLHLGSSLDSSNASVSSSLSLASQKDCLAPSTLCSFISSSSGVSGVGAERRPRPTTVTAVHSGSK
Sequence of Misshapen-like kinase 1 (Q8N4C8 whole entry, looked up): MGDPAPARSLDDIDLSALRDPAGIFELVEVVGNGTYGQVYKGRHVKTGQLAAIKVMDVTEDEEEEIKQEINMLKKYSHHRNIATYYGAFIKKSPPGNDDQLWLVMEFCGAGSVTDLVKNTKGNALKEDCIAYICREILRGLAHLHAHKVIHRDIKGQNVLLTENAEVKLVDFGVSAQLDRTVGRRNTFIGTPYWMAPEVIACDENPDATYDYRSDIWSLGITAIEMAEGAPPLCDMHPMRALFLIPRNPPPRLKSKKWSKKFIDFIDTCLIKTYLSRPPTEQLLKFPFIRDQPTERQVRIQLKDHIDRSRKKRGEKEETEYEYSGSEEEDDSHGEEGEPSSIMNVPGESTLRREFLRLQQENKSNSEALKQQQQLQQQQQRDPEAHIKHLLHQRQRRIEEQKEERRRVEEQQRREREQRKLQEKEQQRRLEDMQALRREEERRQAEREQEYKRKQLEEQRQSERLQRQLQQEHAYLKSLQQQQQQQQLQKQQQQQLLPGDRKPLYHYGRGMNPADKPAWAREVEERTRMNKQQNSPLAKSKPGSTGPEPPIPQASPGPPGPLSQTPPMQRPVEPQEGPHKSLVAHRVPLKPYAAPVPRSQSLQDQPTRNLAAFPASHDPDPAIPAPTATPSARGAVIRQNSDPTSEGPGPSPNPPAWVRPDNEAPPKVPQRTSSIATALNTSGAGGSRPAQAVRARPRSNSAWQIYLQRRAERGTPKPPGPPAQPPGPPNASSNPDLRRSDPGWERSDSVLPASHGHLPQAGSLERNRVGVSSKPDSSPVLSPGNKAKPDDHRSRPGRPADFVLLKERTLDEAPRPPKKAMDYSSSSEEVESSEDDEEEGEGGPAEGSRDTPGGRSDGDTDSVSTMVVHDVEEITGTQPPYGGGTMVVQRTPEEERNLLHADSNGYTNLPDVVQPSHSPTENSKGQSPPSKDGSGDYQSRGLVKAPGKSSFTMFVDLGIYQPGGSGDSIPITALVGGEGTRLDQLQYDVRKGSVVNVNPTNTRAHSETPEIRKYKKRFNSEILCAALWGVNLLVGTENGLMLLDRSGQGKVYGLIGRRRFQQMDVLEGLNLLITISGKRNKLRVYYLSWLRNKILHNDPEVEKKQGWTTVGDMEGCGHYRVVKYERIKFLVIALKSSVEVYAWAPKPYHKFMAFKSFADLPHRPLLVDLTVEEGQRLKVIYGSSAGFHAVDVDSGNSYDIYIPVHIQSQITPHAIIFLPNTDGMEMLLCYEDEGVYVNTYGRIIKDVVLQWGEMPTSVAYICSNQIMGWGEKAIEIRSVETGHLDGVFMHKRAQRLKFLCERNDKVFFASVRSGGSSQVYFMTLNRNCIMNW

For `Cc1cnc(Nc2ccc(F)cc2Cl)nc1-c1c[nH]c(C(=O)N[C@H](CO)c2cccc(Cl)c2)c1`, the % of inhibition (Misshapen-like kinase 1) was 18%.

Compound `CC[C@@H]1[C@H](F)C(=O)N[C@@H]1COc1nccc2cc(C(N)=O)c(OC)cc12` [ZIMLOVISERTIB] has a % of inhibition [1] of 5.2%.

Work on `CCN(CC)CCCCNc1ncc2cc(-c3cc(OC)cc(OC)c3)c(NC(=O)NC(C)(C)C)nc2n1` yielded a % of control [2] of 100%.

`COc1cc(N(C)c2ccnc3ccc(C(F)(F)F)cc23)cc(OC)c1OC` gave a % binding [3] of 90%.

With `CCC(=O)N1CCN(c2ccc(-n3c(=O)ccc4cnc5ccc(-c6cnc7ccccc7c6)cc5c43)cc2C(F)(F)F)CC1` the % of control [4] was 89%.

In the case of `CNC(=O)Nc1ccc(-c2nc(N3CC4CCC(C3)O4)c3cnn(C4CCC5(CC4)OCCO5)c3n2)cc1`, the % of control [5] is reported as 100%.
